# Data: US9874563B2, “Detecting and quantifying cryptic HIV replication” (UNIVERSITY OF DELAWARE, priority 2012, dated 2018)
# Values joined by “and” are separate entries in the source; they are usually repeats but may differ in a detail not shown here. Equal values may be shown once.
# Assays:
# HIV [1] = experiment: Model fit of 2-LTR dynamics following raltegravir intensification (nonlinear mixed-effects, Bayesian MCMC); parameters: species or system human
# From the text: Previous work has been done on identifying HIV model parameters from experiments involving the use of integrase inhibitors. These models, however, considered only standard viral load measurements, not measurements of 2-LTR circle frequency. We introduce a simple model of the dynamics of the concentrations of actively infected cells y(t) and cells containing 2-LTR episomes c(t) in the site of episome formation. We model the behavior both in the absence of raltegravir uII=0 and in the presence of raltegravir uII=1.
# The reproductive ratio of the virus prior to raltegravir intensification is R, and the reproductive ratio after raltegravir intensification is (1−ηII)R, where ηII is the effectiveness of raltegravir at interrupting infection events that would otherwise have occurred without intensification. The reproductive ratios are defined as the average number of infected cells created per infected cell in a single generation. If the virus was replicating efficiently prior to intensification (R0>1), then the measured R would be approximately equal to 1 at equilibrium, as the efficient replication would necessarily be target cell limited. If the infection is controlled prior to intensification (R0<1), then the measured reproductive ratio R will be approximately equal to R0.
# 2-LTR circles may also be formed at an integrase inhibitor-enhanced rate in the presence of raltegravir. The rate at which infection events are interrupted by raltegravir after intensification is ηIIRay which, when multiplied by the probability 0<kII<1 that the interruption of an infection even leads to the formation of a 2-LTR episome, gives us the rate of integrase inhibitor-enhances 2-LTR formation kIIηIIRay. φ≧0 is the ratio between the intrinsic rate and the raltegravir-enhanced rate of 2-LTR formation.
# These dynamics can be written in the form of Equation 1: y=−(1−(1−ηIIuII)R)ay+ye ċ=φkII(1−ηIIuII)Ray+kIIηIIuIIRay−δc (1)
# To reduce the parametric covariance, we introduced a re-parametrized parameter A=kIIye/δ to replace kIIye. […]
# The posterior distribution of the parameter likelihood given the measured 2-LTR values was computed using a Bayesian Markov-Chain Monte-Carlo method with Gibbs Sampling, as in References 56, 75, 78 and 79 with noninformative prior distributions for the parameters as follows:
# Markov-Chain Monte-Carlo methods were used to fit Equation 5 to the experimental data for 13 patients, with shared parameters {θ, δ} and patient-specific parameters {R; ηII, kIIye}, using the measurement uncertainty model described in the Materials and Methods section. […] The maximum-likelihood predicted 2-LTR concentrations for each patient, together with the 95% prediction interval, is shown compared to the measured data in FIG. 3.
# HIV 2-LTR circles = conditions: cited from earlier work
# HIV [2] = conditions: duration of the experiment; 13 patients of the experimental group; cited from earlier work
structure (smiles),measurement,setting,value
Cc1nnc(C(=O)NC(C)(C)c2nc(C(=O)NCc3ccc(F)cc3)c(O)c(=O)n2C)o1 [raltegravir],effect on level of cryptic replication,"HIV [1]; addition of raltegravir to HAART, interpretation of the 2-LTR data",reduces the level of cryptic replication to undetectable levels
same,increase in likelihood of 2-LTR formation when raltegravir interrupts integration,HIV [1]; from 95% credible interval of φ,250-1000 times
same,"ηII (ratio-reduction in R following raltegravir intensification; drug efficacy of raltegravir), MLE","HIV [1]; maximum likelihood (posterior mode), patient-specific fitted parameter, one table row per patient",0.01 (3×) and 0.19 and 0.02 and 0.49 and 0.77 and 0.05 and 0.03 and 0.79 and 0.81 and 0.99 and 0.08
same,"ηII (ratio-reduction in R following raltegravir intensification; drug efficacy of raltegravir), Median","HIV [1]; posterior median, patient-specific fitted parameter, one table row per patient",0.78 and 0.21 and 0.02 and 0.53 (3×) and 0.74 and 0.38 and 0.04 and 0.39 and 0.50 and 0.55 and 0.12
same,patients with 2-LTR containing cells observed,"HIV 2-LTR circles; HAART intensified by raltegravir for 48 weeks, experimental group of 45",13/45 and 13 of the 45
same,"2-LTR quantification, Week Post-Intensification 0","HIV 2-LTR circles; week 0 (baseline at start of raltegravir intensification), individual HAART-suppressed patients, one table row per patient, censoring limit 1.20",<1.20 2-LTR per 10^6 PBMC (7×) and 1.76 2-LTR per 10^6 PBMC and 38.62 2-LTR per 10^6 PBMC and 35.30 2-LTR per 10^6 PBMC and 9.98 2-LTR per 10^6 PBMC and 2.99 2-LTR per 10^6 PBMC
same,"2-LTR quantification, Week Post-Intensification 2","HIV 2-LTR circles; week 2 of raltegravir intensification, individual patients, one table row per patient, censoring limit 1.20",21.47 2-LTR per 10^6 PBMC and 48.16 2-LTR per 10^6 PBMC and 72.77 2-LTR per 10^6 PBMC and 30.55 2-LTR per 10^6 PBMC and 5.84 2-LTR per 10^6 PBMC and 12.98 2-LTR per 10^6 PBMC and 3.05 2-LTR per 10^6 PBMC and <1.20 2-LTR per 10^6 PBMC (4×) and 23.69 2-LTR per 10^6 PBMC and 1.98 2-LTR per 10^6 PBMC
same,"2-LTR quantification, Week Post-Intensification 4","HIV 2-LTR circles; week 4 of raltegravir intensification, individual patients, one table row per patient, censoring limit 1.20",<1.20 2-LTR per 10^6 PBMC (3×) and 9.07 2-LTR per 10^6 PBMC and 5.37 2-LTR per 10^6 PBMC and 13.42 2-LTR per 10^6 PBMC and 3.19 2-LTR per 10^6 PBMC and 2.68 2-LTR per 10^6 PBMC and 24.75 2-LTR per 10^6 PBMC and 21.07 2-LTR per 10^6 PBMC and 3.03 2-LTR per 10^6 PBMC
same,"2-LTR quantification, Week Post-Intensification 12","HIV 2-LTR circles; week 12 of raltegravir intensification, individual patients, one table row per patient, censoring limit 1.20",10.38 2-LTR per 10^6 PBMC and 7.38 2-LTR per 10^6 PBMC and 1.26 2-LTR per 10^6 PBMC and <1.20 2-LTR per 10^6 PBMC (4×) and 1.61 2-LTR per 10^6 PBMC and 9.55 2-LTR per 10^6 PBMC and 39.64 2-LTR per 10^6 PBMC and 30.11 2-LTR per 10^6 PBMC
same,"2-LTR quantification, Week Post-Intensification 24","HIV 2-LTR circles; week 24 of raltegravir intensification, individual patients, one table row per patient, censoring limit 1.20",2.73 2-LTR per 10^6 PBMC and 2.20 2-LTR per 10^6 PBMC and <1.20 2-LTR per 10^6 PBMC (8×) and 1.88 2-LTR per 10^6 PBMC and 1.29 2-LTR per 10^6 PBMC
same,"2-LTR quantification, Week Post-Intensification 48","HIV 2-LTR circles; week 48 of raltegravir intensification, individual patients, one table row per patient, censoring limit 1.20",<1.20 2-LTR per 10^6 PBMC (9×) and 7.04 2-LTR per 10^6 PBMC
same,plasma viral load,HIV [2],remained below the standard limit of detection
